# According to ChEMBL document CHEMBL1158166, “DNA binding and biological studies of some novel water-soluble polymer-copper(II)-phenanthroline complexes” (2008):
# Tests used:
# Settings in all cases: read-out: IZ
# [1] = tested on: Candida albicans; assay: Antifungal activity against Candida albicans at 10 ug/disc after 24 to 48 hrs; assay type: functional
# [2] = tested on: Bacillus subtilis; assay: Antibacterial activity against Bacillus subtilis at 1 ug/disc after 24 to 48 hrs
# [3] = tested on: Staphylococcus aureus; assay: Antibacterial activity against Staphylococcus aureus at 1 ug/disc after 24 to 48 hrs
# [4] = tested on: Pseudomonas aeruginosa; assay: Antibacterial activity against Pseudomonas aeruginosa at 1 ug/disc after 24 to 48 hrs
# [5] = tested on: Escherichia coli; assay: Antibacterial activity against Escherichia coli at 1 ug/disc after 24 to 48 hrs
Structure (SMILES),zone of inhibition at 10 µg/disc [1] [mm],zone of inhibition at 1 µg/disc [2] [mm],zone of inhibition at 1 µg/disc [3] [mm],zone of inhibition at 1 µg/disc [4] [mm],zone of inhibition at 1 µg/disc [5] [mm]
Clc1ccccc1C(c1ccccc1)(c1ccccc1)n1ccnc1 [CLOTRIMAZOLE],12,,,,
O=C(O)c1cn(C2CC2)c2cc(N3CCNCC3)c(F)cc2c1=O [CIPROFLOXACIN],,17,16,17,16
